We go through eleven compounds from patent US20030073850A1, “4-Imidazole derivatives of benzyl and restricted benzyl sulfonamides, sulfamides, ureas, carbamates, and amides and their use” (priority 1998, published 2003).

Counter-ions that a name gives are not always drawn. Like-named read-outs stand apart in the source and are kept apart here.

Data set [1] relates to anesthetized dogs. The experiment in a line: Mean arterial pressure (MAP) in anesthetized dogs. Type of data set: in vivo, dog. Particulars: iv dose causing a maximum increase in MAP of 20 mm Hg, anesthetized female Beagle dogs. The text has this:
(§1) Female Beagle dogs (Marshall Farms, North Rose, N.Y.) greater that 2 years of age and weighing between 12 and 15 kg were used in these studies. At least 2 weeks prior to any agonist dosing, dogs were instrumented for the chronic measurement of arterial blood pressure by implanting a telemetry transducer/transmitter (TA11PA-C40, Data Sciences International, St. Paul, Minn.) into a carotid artery.
(§2) On the test day, dogs fasted since the previous afternoon were pre-anesthetized with thiopental sodium 15 mg/kg i.v. (Pentothal™, Abbott) and intubated. Anesthesia was maintained by allowing the dog to spontaneously breathe a mixture of isoflurane (2.5 to 3 volume %) and oxygen delivered by a Narkomed Standard anesthesia system (North American Drager, Telford, Pa.). An Abbocath-T™ i.v. catheter (18-G, Abbott) was inserted into the cephalic vein for the administration of agonists. A telemetry receiver (RA1310, DataSciences) was placed under the head of each dog and was interfaced to a computerized data acquisition system (Modular Instruments Inc.(MI2), Malvern, Pa.) which allowed for the continuous calibrated recording of arterial blood pressure which was electronically filtered to determine its mean value (MAP).
(§3) From the resulting dose response curve, an ED5 value, for the dose causing a maximum increase in IUP of 5 mm Hg, could be estimated. An ED20 value for the dose causing a maximum increase in MAP of 20 mm Hg could also be estimated. A selectivity ratio of MAP ED20 vs. IUP ED, was calculated.

Data set [2] concerns anesthetized dogs. The experiment in a line: Intraurethral pressure (IUP) in anesthetized dogs. Type of data set: in vivo, dog. To be noted: iv dose causing a maximum increase in IUP of 5 mm Hg, anesthetized female Beagle dogs; for ED (5 mm Hg): Canis lupus familiaris, read-out: Mean IUP ED5.
Excerpt: as §1, §2
Dogs with chronic telemetry implants anesthetized as described above were placed in dorsal recumbency and a balloon catheter was inserted into the urethral orifice and advanced approximately 15 cm until the tip was well inside the bladder. The balloon was then inflated with 1 ml of room air and the catheter slowly withdrawn until resistance (corresponding to the bladder neck) was evident. The balloon was then deflated and the catheter withdrawn additional 2 cm. The balloon was then reinflated and its catheter port connected to a Gould Statham P23Dd pressure transducer interfaced to a computerized data acquisition system (Modular Instruments, Inc., Malvern, Pa.) for the measurement of the intraurethral pressure. Increasing iv doses of test agonists were administered and the maximum effect of each dose on IUP was recorded. The effect of each dose was allowed to return to baseline before the next dose was given.
as §3

In data set [3] the target is T1, α1b (hamster receptor expressed in mouse fibroblasts) (Mesocricetus auratus, UniProt P18841).
T1 construct: expressed in transfected cells; host or cells: mouse fibroblasts
T1 sequence (P18841 1-515): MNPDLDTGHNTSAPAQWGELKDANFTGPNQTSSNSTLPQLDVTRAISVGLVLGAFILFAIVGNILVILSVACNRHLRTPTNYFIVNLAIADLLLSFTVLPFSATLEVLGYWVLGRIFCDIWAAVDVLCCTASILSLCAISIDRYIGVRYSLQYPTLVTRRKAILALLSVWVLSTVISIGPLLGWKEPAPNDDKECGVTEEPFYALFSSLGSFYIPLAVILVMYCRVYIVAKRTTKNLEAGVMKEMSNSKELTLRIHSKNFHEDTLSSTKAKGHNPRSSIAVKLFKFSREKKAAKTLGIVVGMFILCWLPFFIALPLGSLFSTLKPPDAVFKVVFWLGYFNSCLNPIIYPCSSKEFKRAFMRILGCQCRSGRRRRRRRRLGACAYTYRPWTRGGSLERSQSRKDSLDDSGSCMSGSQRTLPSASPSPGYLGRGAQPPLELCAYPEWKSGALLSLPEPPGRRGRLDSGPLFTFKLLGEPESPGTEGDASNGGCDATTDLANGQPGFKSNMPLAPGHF
The data set can be described thus: Radioligand binding, [3H]-prazosin, α1b. Particulars: hamster receptor expressed in mouse fibroblasts, [3H]-prazosin, read-out: Radioligand Binding Ki α1b (Hamster). The protocol: (§4) For purposes of discussing a, adrenoceptor subtypes, the IUPHAR convention of using lower case letters to define molecular clones and upper case letters to indicate pharmacologically defined adrenoceptors has been followed. Compounds of formula I were evaluated in radioligand binding assays specific for α1A (rat submaxillary gland), α1b (hamster receptor expressed in mouse fibroblasts) and α1d (rat receptor expressed in mouse fibroblasts) using [^3H]-prazosin as the radioligand as described in Knepper, et al. J. Pharm.

In data set [4] the target is T2, α1d (rat receptor expressed in mouse fibroblasts) (Rattus norvegicus, UniProt P23944).
T2 construct: expressed in transfected cells; host or cells: mouse fibroblasts
T2 sequence (P23944 1-561): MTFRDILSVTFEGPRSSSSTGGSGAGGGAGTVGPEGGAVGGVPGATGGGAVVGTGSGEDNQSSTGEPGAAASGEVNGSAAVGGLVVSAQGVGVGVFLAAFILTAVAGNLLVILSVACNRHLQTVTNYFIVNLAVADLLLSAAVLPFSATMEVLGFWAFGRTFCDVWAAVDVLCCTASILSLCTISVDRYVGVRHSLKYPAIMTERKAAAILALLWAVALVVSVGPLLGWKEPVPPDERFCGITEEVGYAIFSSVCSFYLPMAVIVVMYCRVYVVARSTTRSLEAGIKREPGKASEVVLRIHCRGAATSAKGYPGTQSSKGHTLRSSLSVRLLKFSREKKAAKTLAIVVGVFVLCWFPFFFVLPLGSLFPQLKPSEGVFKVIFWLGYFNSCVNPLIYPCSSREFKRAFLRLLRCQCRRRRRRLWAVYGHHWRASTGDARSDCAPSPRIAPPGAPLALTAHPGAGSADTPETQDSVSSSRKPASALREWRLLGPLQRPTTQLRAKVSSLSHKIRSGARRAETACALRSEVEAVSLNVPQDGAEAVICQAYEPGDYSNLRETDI
The data set can be described thus: Radioligand binding, [3H]-prazosin, α1d. Particulars: rat receptor expressed in mouse fibroblasts, [3H]-prazosin; read-out: Radioligand Binding Ki α1d (Rat). How it is done:
as §4

On to `CCS(=O)(=O)Nc1cccc2c1CCCC2c1c[nH]cn1.O=C(O)/C=C\C(=O)O` (single isomer, unassigned; (+)) [Example 33, (+)-N-[5-(1H-imidazol-4-yl)-5,6,7,8-tetrahydro-1-naphthalenyl]ethanesulfonamide, Maleate], for which, in the data set with anesthetized dogs [1] (Maleate), the “Mean MAP ED20” value turned out to be 34.0 nmol/kg.

For the compound `CS(=O)(=O)Nc1cccc2c1OCCC2c1c[nH]cn1.O=C(O)/C=C\C(=O)O` (single isomer, unassigned; (+)) [Example 93, (+) N-[4-(1H-imidazol-4-yl)-3,4-dihydro-2H-chromen-8-yl]methanesulfonamide Maleate], the melting point is 205 to 208 °C. The ED (5 mm Hg) in the data set on anesthetized dogs [2] was determined as 0.038 µmol/kg.

Turning to `CCS(=O)(=O)Nc1cccc2c1CCCC2c1c[nH]cn1.O=C(O)/C=C\C(=O)O` (single isomer, unassigned; (-)) [Example 34, (−)-N-[5-(1H-imidazol-4-yl)-5,6,7,8-tetrahydro-1-naphthalenyl]ethanesulfonamide, Maleate], the melting point was in the range of 129 to 130 °C. The inhibitory constant (Ki) in data set [3] (Maleate) was 10 µM. In addition, the “Mean MAP ED20” value in the data set with anesthetized dogs [1] (Maleate) is reported as over 1000 nmol/kg.

`CS(=O)(=O)Nc1cccc2c1CCC[C@@H]2c1c[nH]cn1` [Example 10, (−)-N-[(5S)-5-(1H-imidazol-4-yl)-5,6,7,8-tetrahydro-1-naphthalenyl]methanesulfonamide]: the melting point is 118 to 123 °C. The ED (5 mm Hg) in the data set on anesthetized dogs [2] is over 1 µmol/kg. Further, the “Mean MAP ED20” value in the data set on anesthetized dogs [1] was over 1000 nmol/kg.

Turning to `Cl.Cn1cnc(C2CCCc3c(NS(C)(=O)=O)cccc32)c1` (centres unmarked) [Example 14, N-[5,6,7,8-tetrahydro-5-(1-methyl-1H-imidazol-4-yl)-1-naphthalenyl]methanesulfonamide, Hydrochloride], the melting point lay in the range of 130 to 135 °C. Moreover, the “Mean MAP ED20” value with anesthetized dogs [1] was over 1000 nmol/kg.

As for `CN(c1cccc2c1CCCC2c1c[nH]cn1)S(C)(=O)=O.O=C(O)/C=C\C(=O)O` (centres unmarked) [Example 15, N-[5-(1H-imidazol-4-yl)-5,6,7,8-tetrahydro-1-naphthalenyl]-N-methylmethanesulfonamide, Maleate], in the data set with anesthetized dogs [2], the ED (5 mm Hg) was determined as 0.0919 µmol/kg. Also, the Ki in data set [3] is 10 µM. Further, the “Mean MAP ED20” value in the data set with anesthetized dogs [1] came out at 225 nmol/kg.

`CC(=O)Nc1cccc2c1CCCC2c1c[nH]cn1.O=C(O)/C=C\C(=O)O` (centres unmarked) [Example 16, N-[5,6,7,8-tetrahydro-5-(1H-imidazol-4-yl)-1-naphthalenyl]acetamide, Maleate]: the melting point is 159 to 160 °C. The “Mean MAP ED20” value in the data set with anesthetized dogs [1] came to 220 nmol/kg.

In the case of `O=C(Nc1cccc2c1CCCC2c1c[nH]cn1)C(F)(F)F.O=C(O)/C=C\C(=O)O` (centres unmarked) [Example 17, 2,2,2-trifluoro-N-[5-(1H-imidazol-4-yl)-5,6,7,8-tetrahydro-1-naphthalenyl]acetamide, maleate], in the data set on anesthetized dogs [2], the ED (5 mm Hg) is 0.188 µmol/kg. The Ki in data set [3] came to 10 µM. Further, in the data set with anesthetized dogs [1], the “Mean MAP ED20” value is 216 nmol/kg.

As for `COc1ccc(NS(C)(=O)=O)c2c1C(c1c[nH]cn1)CCC2` (centres unmarked) [Example 26, N-[5,6,7,8-tetrahydro-(1H-imidazol-4-yl)-4-methoxy-1-naphthalenyl]methanesulfonamide, Maleate], in the data set with anesthetized dogs [2], the “Mean IUP ED5” value was 653 nmol/kg. For the same compound, the Ki in data set [4] and in data set [3] was 10 µM throughout.

With `CCS(=O)(=O)Nc1cccc2c1CCC2c1c[nH]cn1.O=C(O)/C=C\C(=O)O` (centres unmarked) [Example 39, N-[1-(1H-imidazol-4-yl)-2,3-dihydro-1H-inden-4-yl]ethanesulfonamide, Maleate], the melting point lay in the range of 148 to 149 °C. The “Mean MAP ED20” value in the data set with anesthetized dogs [1] was determined as 5.6 nmol/kg.

Take `C=C(c1cccc(NS(=O)(=O)CC)c1)c1c[nH]cn1.O=C(O)/C=C\C(=O)O` [Example 45, N-{3-[1-(1H-imidazol-4-yl)vinyl]phenyl}ethanesulfonamide, Maleate]: in the data set with anesthetized dogs [2], the ED (5 mm Hg) was 0.273 µmol/kg. The “Mean MAP ED20” value in the data set on anesthetized dogs [1] came to 633 nmol/kg.

The term melting point denotes the temperature, or range, at which the solid turns liquid. Broadly, the Ki is the equilibrium dissociation constant of an inhibitor or competing ligand from its target.
